The test system of series [1] is Myzus persicae (Green Peach Aphid). Kind of series: Myzus persicae systemic activity, pea seedlings. In kind it is in vivo. The settings on record: 144 h, test rate of 24 ppm, 6 days after placing seedlings into test solutions.
The test system is the same in series [2]. As to the kind of experiment: Myzus persicae feeding/contact activity, sunflower leaf discs. In kind it is in vivo. The settings on record: foliar, 144 h. The procedure: Example B5: Myzus persicae (Green Peach Aphid): Feeding/Contact Activity
Sunflower leaf discs were placed onto agar in a 24-well microtiter plate and sprayed with aqueous test solutions prepared from 10′000 ppm DMSO stock solutions. After drying, the leaf discs were infested with an aphid population of mixed ages. The samples were assessed for mortality 6 days after infestation.

Series [3] deals with Thrips tabaci (Onion Thrips). As to the kind of experiment: Thrips tabaci feeding/contact activity, sunflower leaf discs. In kind it is in vivo. The conditions noted are these: foliar, 144 h, application rate of 200 ppm, population of mixed ages, 6 days after infestation. The procedure:
Example B11: Thrips tabaci (Onion Thrips) Feeding/Contact Activity
Sunflower leaf discs were placed on agar in 24-well microtiter plates and sprayed with aqueous test solutions prepared from 10′000 ppm DMSO stock solutions. After drying the leaf discs were infested with a thrips population of mixed ages. The samples were assessed for mortality 6 days after infestation.

The test system of series [4] is Diabrotica Balteata (Corn Root Worm). Kind of series: Diabrotica balteata L2 larvae on maize sprouts. In kind it is in vivo. The conditions noted are these: 96 h, read-out: effect in at least one of the two categories (mortality or growth inhibition); for percent effect (mortality or growth inhibition) at 200 ppm: application rate of 200 ppm, L2 larvae, 4 days after infestation. The procedure:
Example B2: Diabrotica Balteata (Corn Root Worm)
Maize sprouts placed onto an agar layer in 24-well microtiter plates were treated with aqueous test solutions prepared from 10′000 ppm DMSO stock solutions by spraying. After drying, the plates were infested with L2 larvae (6 to 10 per well). The samples were assessed for mortality and growth inhibition in comparison to untreated samples 4 days after infestation.

Series [5] deals with Spodoptera littoralis (Egyqptian Cotton Leaf Worm). As to the kind of experiment: Spodoptera littoralis L1 larvae on sprayed cotton leaf discs. In kind it is in vivo. The conditions noted are these: foliar, 72 h, read-out: control (mortality, anti-feeding effect, growth inhibition). The protocol: Example B8: Spodoptera littoralis (Egyqptian Cotton Leaf Worm)
Cotton leaf discs were placed onto agar in 24-well microtiter plates and sprayed with aqueous test solutions prepared from 10′000 ppm DMSO stock solutions. After drying the leaf discs were infested with five L1 larvae. The samples were assessed for mortality, anti-feeding effect, and growth inhibition in comparison to untreated samples 3 days after infestation. Control of Spodoptera littoralis by a test sample is given when at least one of the categories mortality, anti-feedant effect, and growth inhibition is higher than the untreated sample.

Series [6] concerns Plutella xylostella (Diamond Back Moth). Kind of series: Plutella xylostella L2 larvae on artificial diet. The conditions noted are these: 120 h, read-out: effect in at least one of the two categories (mortality or growth inhibition); for percent effect (mortality or growth inhibition) at 200 ppm: application rate of 200 ppm, L2 larvae, 5 days after infestation. In kind it is in vivo. The protocol: Example B7: Plutella xylostella (Diamond Back Moth)
24-well microtiter plates with artificial diet were treated with aqueous test solutions prepared from 10′000 ppm DMSO stock solutions by pipetting. After drying, the plates were infested with L2 larvae (10 to 15 per well). The samples were assessed for mortality and growth inhibition in comparison to untreated samples 5 days after infestation.

Where [7] appears, read: application rate of 200 ppm, feeding/contact, population of mixed ages, 6 days after infestation, read-out: mortality.
The mark [8] stands for this setting: application rate of 200 ppm, L1 larvae, 3 days after infestation.

Like-named read-outs stand apart in the source and are kept apart here.

Broadly, the melting point is the temperature, or range, at which the solid turns liquid. Broadly, the mortality is the share of the test organisms that died.

Regarding `CCS(=O)(=O)c1cc(C(=O)N(C)C2CC2)cnc1-c1nnc(-c2cc(C(F)(F)F)ccn2)n1C` [A16, N-cyclopropyl-5-ethylsulfonyl-N-methyl-6-[4-methyl-5-[4-(trifluoromethyl)-2-pyridyl]-1,2,4-triazol-3-yl]pyridine-3-carboxamide], the melting point was 235 to 237 °C.
Compound `CCS(=O)(=O)c1cc(N(C)S(C)(=O)=O)cnc1-c1nnc(-c2cc(C(F)(F)F)ccn2)n1C` [A12, N-[5-ethylsulfonyl-6-[4-methyl-5-[4-(trifluoromethyl)-2-pyridyl]-1,2,4-triazol-3-yl]-3-pyridyl]-N-methyl-methanesulfonamide] showed a mortality at 24 ppm in series [1] of no less than 80%. In addition, the mortality at 200 ppm in series [2] (setting [7]) was no less than 80%.
As for `CCS(=O)(=O)c1cc(N(C)/C=N/OC)cnc1-c1nnc(-c2cc(C(F)(F)F)ccn2)n1C` [A25, N-[5-ethylsulfonyl-6-[4-methyl-5-[4-(trifluoromethyl)-2-pyridyl]-1,2,4-triazol-3-yl]-3-pyridyl]-N′-methoxy-N-methyl-formamidine], the mortality at 24 ppm in series [1] was no less than 80%. For the same compound, the mortality at 200 ppm in series [2] (setting [7]) is no less than 80%.
With `CCS(=O)(=O)c1cc(N(C(=O)C2CC2)S(C)(=O)=O)cnc1-c1nnc(-c2cc(C(F)(F)F)ccn2)n1C` [A20, N-[5-ethylsulfonyl-6-[4-methyl-5-[4-(trifluoromethyl)-2-pyridyl]-1,2,4-triazol-3-yl]-3-pyridyl]-N-methylsulfonyl-cyclopropanecarboxamide], the melting point fell in the range of 229 to 231 °C.
`CCS(=O)(=O)c1cc(N/C=N/OC)cnc1-c1nnc(-c2cc(C(F)(F)F)ccn2)n1C` [A24, N-[5-ethylsulfonyl-6-[4-methyl-5-[4-(trifluoromethyl)-2-pyridyl]-1,2,4-triazol-3-yl]-3-pyridyl]-N′-methoxy-formamidine]: in series [1], the mortality at 24 ppm was no less than 80%.
The compound `CCS(=O)(=O)c1cc(C=O)cnc1-c1nnc(-c2cc(C(F)(F)F)ccn2)n1C` [A3, 5-ethylsulfonyl-6-[4-methyl-5-[4-(trifluoromethyl)-2-pyridyl]-1,2,4-triazol-3-yl]pyridine-3-carbaldehyde] returned a mortality at 24 ppm in series [1] of no less than 80%. Also, the mortality at 200 ppm in series [2] (setting [7]) was no less than 80%.
On to `CCS(=O)(=O)c1ccc(C(=O)NC2CC2)nc1-c1nnc(-c2cc(C(F)(F)F)ccn2)n1C` [A19, N-cyclopropyl-5-ethylsulfonyl-6-[4-methyl-5-[4-(trifluoromethyl)-2-pyridyl]-1,2,4-triazol-3-yl]pyridine-2-carboxamide], for which, in series [1], the mortality at 24 ppm was no less than 80%. The mortality at 200 ppm in series [2] (setting [7]) and in series [3] was no less than 80% in each case.
In series [1], `CCS(=O)(=O)c1ccc(N(C)C(=O)C2CC2)nc1-c1nnc(-c2cc(C(F)(F)F)ccn2)n1C` [A8, N-[5-ethylsulfonyl-6-[4-methyl-5-[4-(trifluoromethyl)-2-pyridyl]-1,2,4-triazol-3-yl]-2-pyridyl]-N-methyl-cyclopropanecarboxamide] had a mortality at 24 ppm of no less than 80%. For the same compound, the percent effect (mortality or growth inhibition) at 200 ppm in series [4] and in series [6] was no less than 80% each time. Besides, the mortality at 200 ppm in series [5] (setting [8]), in series [2] (setting [7]) and in series [3] was no less than 80% throughout.
For `CCS(=O)(=O)c1cc(N(C)C(=O)OC(C)(C)C)cnc1-c1nnc(-c2cc(C(F)(F)F)ccn2)n1C` [A39, Tert-Butyl N-[5-ethylsulfonyl-6-[4-methyl-5-[4-(trifluoromethyl)-2-pyridyl]-1,2,4-triazol-3-yl]-3-pyridyl]-N-methyl-carbamate], the percent control (mortality or growth inhibition) at 200 ppm in series [4] and in series [6] was no less than 80% throughout. In addition, the mortality at 200 ppm in series [5] is no less than 80%.
Take `CCS(=O)(=O)c1cc(NC2(C#N)CC2)cnc1-c1nnc(-c2cc(C(F)(F)F)ccn2)n1C` [A22, 1-[[5-ethylsulfonyl-6-[4-methyl-5-[4-(trifluoromethyl)-2-pyridyl]-1,2,4-triazol-3-yl]-3-pyridyl]amino]cyclopropanecarbonitrile]: in series [1], the mortality at 24 ppm is no less than 80%.
Consider `CCS(=O)(=O)c1ccc(N(CC(F)(F)F)C(=O)C2CC2)nc1-c1nnc(-c2cc(C(F)(F)F)ccn2)n1C` [A29, N-[5-ethylsulfonyl-6-[4-methyl-5-[4-(trifluoromethyl)-2-pyridyl]-1,2,4-triazol-3-yl]-2-pyridyl]-N-(2,2,2-trifluoroethyl)cyclopropanecarboxamide], for which the percent effect (mortality or growth inhibition) at 200 ppm in series [4] and in series [6] was no less than 80% throughout. Moreover, the mortality at 200 ppm in series [5] (setting [8]), in series [2] (setting [7]) and in series [3] was no less than 80% in each case.
`CCS(=O)(=O)c1cc(C(C)=O)cnc1-c1nnc(-c2cc(C(F)(F)F)ccn2)n1C` [A4, 1-[5-ethylsulfonyl-6-[4-methyl-5-[4-(trifluoromethyl)-2-pyridyl]-1,2,4-triazol-3-yl]-3-pyridyl]ethanone] had a mortality at 24 ppm in series [1] of no less than 80%.
Turning to `CCS(=O)(=O)c1ccc(N(C)C2CC2)nc1-c1nnc(-c2cc(C(F)(F)F)ccn2)n1C` [A11, N-cyclopropyl-5-ethylsulfonyl-N-methyl-6-[4-methyl-5-[4-(trifluoromethyl)-2-pyridyl]-1,2,4-triazol-3-yl]pyridin-2-amine], the mortality at 24 ppm in series [1] is no less than 80%. In addition, the mortality at 200 ppm in series [2] (setting [7]) was no less than 80%.
In the case of `CCS(=O)(=O)c1cc(N)cnc1-c1nnc(-c2cc(C(F)(F)F)ccn2)n1C` [A35, 5-ethylsulfonyl-6-[4-methyl-5-[4-(trifluoromethyl)-2-pyridyl]-1,2,4-triazol-3-yl]pyridin-3-amine], the mortality at 200 ppm in series [2] (setting [7]) is no less than 80%.
For the compound `CCS(=O)(=O)c1ccc(N(C)C(=O)OC(C)(C)C)nc1-c1nnc(-c2cc(C(F)(F)F)ccn2)n1C` [A38, Tert-Butyl N-[5-ethylsulfonyl-6-[4-methyl-5-[4-(trifluoromethyl)-2-pyridyl]-1,2,4-triazol-3-yl]-2-pyridyl]-N-methyl-carbamate], the percent control (mortality or growth inhibition) at 200 ppm in series [4] and in series [6] was no less than 80% in each case. Moreover, the mortality at 200 ppm in series [5] and in series [2] was no less than 80% throughout.
As to `CCSc1cc(NC(=O)C2CC2)cnc1-c1nnc(-c2cc(C(F)(F)F)ccn2)n1C` [A1, N-[5-ethylsulfanyl-6-[4-methyl-5-[4-(trifluoromethyl)-2-pyridyl]-1,2,4-triazol-3-yl]-3-pyridyl]cyclopropanecarboxamide], the mortality at 200 ppm in series [2] (setting [7]) was no less than 80%.
With `CCS(=O)(=O)c1cc(N(C)N(C)C(=O)C2CC2)cnc1-c1nnc(-c2cc(C(F)(F)F)ccn2)n1C` [A31, N′-[5-ethylsulfonyl-6-[4-methyl-5-[4-(trifluoromethyl)-2-pyridyl]-1,2,4-triazol-3-yl]-3-pyridyl]-N,N′-dimethyl-cyclopropanecarbohydrazide], in series [1], the mortality at 24 ppm is no less than 80%. Further, the mortality at 200 ppm in series [2] (setting [7]) was no less than 80%.
As to `CCS(=O)(=O)c1ccc(NC2CC2)nc1-c1nnc(-c2cc(C(F)(F)F)ccn2)n1C` [A5, N-cyclopropyl-5-ethylsulfonyl-6-[4-methyl-5-[4-(trifluoromethyl)-2-pyridyl]-1,2,4-triazol-3-yl]pyridin-2-amine], the mortality at 24 ppm in series [1] is no less than 80%. For the same compound, in series [2] (setting [7]), the mortality at 200 ppm was no less than 80%.
Take `CCS(=O)(=O)c1cc(N(C)C2CC2)cnc1-c1nnc(-c2cc(C(F)(F)F)ccn2)n1C` [A10, N-cyclopropyl-5-ethylsulfonyl-N-methyl-6-[4-methyl-5-[4-(trifluoromethyl)-2-pyridyl]-1,2,4-triazol-3-yl]pyridin-3-amine]: the mortality at 200 ppm in series [5] (setting [8]) and in series [2] (setting [7]) was no less than 80% throughout.
With `CCS(=O)(=O)c1ccc(NC)nc1-c1nnc(-c2cc(C(F)(F)F)ccn2)n1C` [A41, 5-ethylsulfonyl-N-methyl-6-[4-methyl-5-[4-(trifluoromethyl)-2-pyridyl]-1,2,4-triazol-3-yl]pyridin-2-amine], the mortality at 24 ppm in series [1] was no less than 80%. The mortality at 200 ppm in series [2] (setting [7]) was no less than 80%.

The values are drawn from patent US10556884B2, “Pesticidally active heterocyclic derivatives with sulphur containing substituents” (SYNGENTA PARTICIPATIONS AG, priority 2015, dated 2020).
